From the Kinase Knowledgebase extract (Sharma et al. 2016)

Each molecule was assayed against MAPK14 (human) (UniProt Q16539) (assay: Inhibition of LPS Stimulated TNF Production by U937 Cells). Conditions: not given.
Sequence of MAPK14 (human) (Q16539 whole entry, looked up): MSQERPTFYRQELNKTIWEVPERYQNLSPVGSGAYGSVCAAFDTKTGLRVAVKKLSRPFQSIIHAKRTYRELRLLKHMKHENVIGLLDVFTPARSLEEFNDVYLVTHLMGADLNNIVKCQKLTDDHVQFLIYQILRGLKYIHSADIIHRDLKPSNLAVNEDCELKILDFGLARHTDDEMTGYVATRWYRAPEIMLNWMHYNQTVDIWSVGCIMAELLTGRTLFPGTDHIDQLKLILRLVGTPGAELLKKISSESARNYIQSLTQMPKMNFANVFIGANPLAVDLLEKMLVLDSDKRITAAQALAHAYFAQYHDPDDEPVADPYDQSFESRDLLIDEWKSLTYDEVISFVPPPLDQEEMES
With `O=C(COc1ccc(Cl)cc1)NCc1[nH]nc(-c2ccc(F)cc2)c1-c1ccncc1` the IC50 was 1250 nM. Work on `C[C@H](NC(=O)N1CCCC1)c1[nH]nc(-c2ccc(F)cc2)c1-c1ccncc1` yielded an IC50 of 2170 nM. With `OCCCNc1cc(-c2c[nH]nc2-c2ccc(F)cc2)ccn1` the IC50 was 97.3 nM. With `O=C(NCc1[nH]nc(-c2ccc(F)cc2)c1-c1ccncc1)[C@H]1CCCN1` the IC50 was over 1000 nM. For `O=C(NCc1[nH]nc(-c2ccc(F)cc2)c1-c1ccncc1)c1cccs1`, the IC50 was over 1000 nM. In the case of `C#CCn1ncc(-c2ccncc2)c1-c1ccc(F)cc1`, the IC50 is reported as over 10000 nM. In the case of `O=C(N[C@H](Cc1ccccc1)c1[nH]nc(-c2ccc(F)cc2)c1-c1ccncc1)c1cccc(Br)c1`, the IC50 is reported as over 1000 nM. In the case of `COc1ccc(CNc2cc(-c3c[nH]nc3-c3ccc(Cl)cc3)ccn2)cc1`, the IC50 is reported as 495 nM. With `COc1ccc(CC(=O)N[C@H](Cc2ccccc2)c2[nH]nc(-c3ccc(F)cc3)c2-c2ccncc2)cc1OC` the IC50 was over 1000 nM. `Fc1ccc(-c2[nH]nc(NCCCN3CCOCC3)c2-c2ccncc2)cc1` showed an IC50 of 90 nM. In the case of `COc1ccccc1C(=O)NCc1[nH]nc(-c2ccc(F)cc2)c1-c1ccncc1`, the IC50 is reported as 4470 nM. For `CC(C)NC(=O)NCc1[nH]nc(-c2ccc(F)cc2)c1-c1ccncc1`, the IC50 was 10000 nM. Molecule `O=C(c1ccc(Cl)cc1)N1CCC(c2[nH]nc(-c3ccc(F)cc3)c2-c2ccncc2)CC1` has an IC50 of 570 nM. With `O=C(N[C@H](Cc1ccccc1)c1[nH]nc(-c2ccc(F)cc2)c1-c1ccncc1)C1CC1` the IC50 was over 1000 nM. `O=[N+]([O-])c1cccc(S(=O)(=O)NCc2[nH]nc(-c3ccc(F)cc3)c2-c2ccncc2)c1` was tested, and the IC50 was 3920 nM. `O=C(c1ccccc1F)N1CCC(c2[nH]nc(-c3ccc(F)cc3)c2-c2ccncc2)CC1` showed an IC50 of 410 nM. `CNC(=O)CC[C@H](NC(=O)c1ccccc1F)c1[nH]nc(-c2ccc(F)cc2)c1-c1ccncc1` was tested, and the IC50 was over 1000 nM. For `CC(=O)NCc1[nH]nc(-c2ccc(F)cc2)c1-c1ccncc1`, the IC50 was 190 nM. `Cc1onc(-c2c(F)cccc2Cl)c1C(=O)NCc1[nH]nc(-c2ccc(F)cc2)c1-c1ccncc1` was tested, and the IC50 was over 1000 nM. For `CC(C)S(=O)(=O)NCc1[nH]nc(-c2ccc(F)cc2)c1-c1ccncc1`, the IC50 was 5000 nM. In the case of `Fc1ccc(-c2nn(CCN3CCOCC3)cc2-c2ccnc(F)c2)cc1`, the IC50 is reported as over 10000 nM. For `Cn1nc(-c2ccc(F)cc2)c(-c2ccncc2)c1Br`, the IC50 was 1400 nM. `Cc1[nH]nc(-c2ccc(F)cc2)c1-c1ccncc1` gave an IC50 of 222 nM. `Fc1ccc(-c2n[nH]cc2-c2ccnc(NC3CCN(Cc4ccccc4)CC3)c2)cc1` was tested, and the IC50 was 543 nM. `CN(C)CCNc1cc(-c2c[nH]nc2-c2ccc(F)cc2)ccn1` was tested, and the IC50 was 259 nM. `CC(C)(C)c1ccc(S(=O)(=O)NCc2[nH]nc(-c3ccc(F)cc3)c2-c2ccncc2)cc1` showed an IC50 of over 1000 nM. In the case of `C[C@@H](NC(=O)NCCc1[nH]nc(-c2ccc(F)cc2)c1-c1ccncc1)c1ccccc1`, the IC50 is reported as 5000 nM. Molecule `CC(C)=CC(=O)NCc1[nH]nc(-c2ccc(F)cc2)c1-c1ccncc1` has an IC50 of 11000 nM. For `CC(C)=CC(=O)N[C@H](Cc1ccccc1)c1[nH]nc(-c2ccc(F)cc2)c1-c1ccncc1`, the IC50 was over 1000 nM.

Same assay, conditions: concentration not given here
Molecule `C[C@@H](NS(=O)(=O)c1cccc2cnccc12)c1[nH]nc(-c2ccc(F)cc2)c1-c1ccncc1` has an inhibition of 74%. In the case of `CCCCOc1ccc(S(=O)(=O)NCc2[nH]nc(-c3ccc(F)cc3)c2-c2ccncc2)cc1`, the inhibition is reported as 31%. Molecule `O=C(N[C@H](Cc1ccccc1)c1[nH]nc(-c2ccc(F)cc2)c1-c1ccncc1)C1CCCC1` has an inhibition of 3%. `CCS(=O)(=O)N[C@H](C)c1[nH]nc(-c2ccc(F)cc2)c1-c1ccncc1` was tested, and the inhibition was 48%. Work on `C[C@H](NC(=O)c1ccc(C(F)(F)F)cc1)c1[nH]nc(-c2ccc(F)cc2)c1-c1ccncc1` yielded an inhibition of 29%. Molecule `O=S(=O)(c1ccc(-c2ccon2)s1)N1CCC(c2[nH]nc(-c3ccc(F)cc3)c2-c2ccncc2)CC1` has an inhibition of 3%. In the case of `C[C@H](NC(=O)c1c(F)cc(F)cc1F)c1[nH]nc(-c2ccc(F)cc2)c1-c1ccncc1`, the inhibition is reported as 68%. Molecule `Cc1ccc(S(=O)(=O)N[C@H](C)c2[nH]nc(-c3ccc(F)cc3)c2-c2ccncc2)cc1` has an inhibition of 39%. `COc1ccc(C)cc1S(=O)(=O)N[C@H](C)c1[nH]nc(-c2ccc(F)cc2)c1-c1ccncc1` was tested, and the inhibition was 92%. With `CCCCOc1ccc(C(=O)NCc2[nH]nc(-c3ccc(F)cc3)c2-c2ccncc2)cc1` the inhibition was 66%. Molecule `C[C@H](NS(=O)(=O)c1ccc(-c2ccon2)s1)c1[nH]nc(-c2ccc(F)cc2)c1-c1ccncc1` has an inhibition of 95%. For `C[C@@H](NC(=O)c1c(F)cccc1C(F)(F)F)c1[nH]nc(-c2ccc(F)cc2)c1-c1ccncc1`, the inhibition was 86%. In the case of `C[C@@H](NC(=O)c1cccc(Cl)c1Cl)c1[nH]nc(-c2ccc(F)cc2)c1-c1ccncc1`, the inhibition is reported as 43%. `CC(=O)OC(C)(C)C(=O)N[C@H](C)c1[nH]nc(-c2ccc(F)cc2)c1-c1ccncc1` gave an inhibition of 17%. In the case of `O=C(NCc1[nH]nc(-c2ccc(F)cc2)c1-c1ccncc1)c1cc(F)c(F)cc1F`, the inhibition is reported as 36%. `COc1ccc(OC)c(S(=O)(=O)NCCc2[nH]nc(-c3ccc(F)cc3)c2-c2ccncc2)c1` gave an inhibition of 29%. `COCC(=O)N[C@H](C)c1[nH]nc(-c2ccc(F)cc2)c1-c1ccncc1` gave an inhibition of 46%. Work on `COc1ccc(CC(=O)N[C@@H](C)c2[nH]nc(-c3ccc(F)cc3)c2-c2ccncc2)cc1` yielded an inhibition of 22%. `C[C@H](NS(=O)(=O)c1ccc(S(=O)(=O)c2ccccc2)s1)c1[nH]nc(-c2ccc(F)cc2)c1-c1ccncc1` gave an inhibition of 72%. Molecule `COc1ccc(CC(=O)N[C@H](Cc2ccccc2)c2[nH]nc(-c3ccc(F)cc3)c2-c2ccncc2)cc1OC` has an inhibition of 21%. Work on `CC(C)OC(=O)NCc1[nH]nc(-c2ccc(F)cc2)c1-c1ccncc1` yielded an inhibition of 54%. With `O=S(=O)(c1ccccc1)N1CCC(c2[nH]nc(-c3ccc(F)cc3)c2-c2ccncc2)CC1` the inhibition was 21%. `O=C(NCCCc1[nH]nc(-c2ccc(F)cc2)c1-c1ccncc1)NCc1ccccn1` showed an inhibition of 10%. `C[C@@H](NC(=O)c1ccc(I)cc1)c1[nH]nc(-c2ccc(F)cc2)c1-c1ccncc1` was tested, and the inhibition was 25%. `C[C@@H](NC(=O)c1cccc(F)c1F)c1[nH]nc(-c2ccc(F)cc2)c1-c1ccncc1` gave an inhibition of 64%. `COc1cc(C(=O)NCc2[nH]nc(-c3ccc(F)cc3)c2-c2ccncc2)cc(OC)c1OC` was tested, and the inhibition was 21%. In the case of `CCCS(=O)(=O)N[C@H](Cc1ccccc1)c1[nH]nc(-c2ccc(F)cc2)c1-c1ccncc1`, the inhibition is reported as 13%. In the case of `C[C@H](NC(=O)c1ccno1)c1[nH]nc(-c2ccc(F)cc2)c1-c1ccncc1`, the inhibition is reported as 28%. `O=S(=O)(NCc1[nH]nc(-c2ccc(F)cc2)c1-c1ccncc1)c1cc(S(=O)(=O)c2ccccc2)cs1` showed an inhibition of 58%. `O=C(NCc1[nH]nc(-c2ccc(F)cc2)c1-c1ccncc1)c1ccc(F)cc1F` was tested, and the inhibition was 54%. Work on `Cc1noc(C)c1C(=O)N[C@@H](C)c1[nH]nc(-c2ccc(F)cc2)c1-c1ccncc1` yielded an inhibition of 32%. `C[C@H](NC(=O)Cc1cccs1)c1[nH]nc(-c2ccc(F)cc2)c1-c1ccncc1` gave an inhibition of 28%. With `C[C@@H](NC(=O)c1ccccc1Cl)c1[nH]nc(-c2ccc(F)cc2)c1-c1ccncc1` the inhibition was 87%. In the case of `C[C@@H](NC(=O)N1CCCC1)c1[nH]nc(-c2ccc(F)cc2)c1-c1ccncc1`, the inhibition is reported as 48%. With `COc1ccc(S(=O)(=O)N[C@H](C)c2[nH]nc(-c3ccc(F)cc3)c2-c2ccncc2)cc1OC` the inhibition was 25%. In the case of `C[C@@H](NS(=O)(=O)c1ccccc1Br)c1[nH]nc(-c2ccc(F)cc2)c1-c1ccncc1`, the inhibition is reported as 80%. `C[C@H](NC(=O)c1c(Cl)cccc1Cl)c1[nH]nc(-c2ccc(F)cc2)c1-c1ccncc1` gave an inhibition of 35%. In the case of `O=C(NCc1[nH]nc(-c2ccc(F)cc2)c1-c1ccncc1)c1cccc(Cl)c1`, the inhibition is reported as 32%. Work on `CC(C)NC(=O)N[C@H](C)c1[nH]nc(-c2ccc(F)cc2)c1-c1ccncc1` yielded an inhibition of 52%. For `C[C@@H](NC(=O)c1cc(Cl)cc(Cl)c1)c1[nH]nc(-c2ccc(F)cc2)c1-c1ccncc1`, the inhibition was 11%. Molecule `Cc1ccccc1C(=O)N[C@@H](C)c1[nH]nc(-c2ccc(F)cc2)c1-c1ccncc1` has an inhibition of 34%. `CCCCOc1ccc(S(=O)(=O)N[C@@H](C)c2[nH]nc(-c3ccc(F)cc3)c2-c2ccncc2)cc1` was tested, and the inhibition was 80%. `O=C(NCc1[nH]nc(-c2ccc(F)cc2)c1-c1ccncc1)c1cccnc1` showed an inhibition of 16%. In the case of `O=C(CCc1ccccc1)NCc1[nH]nc(-c2ccc(F)cc2)c1-c1ccncc1`, the inhibition is reported as 21%. In the case of `O=C(O)c1ccccc1S(=O)(=O)NCCc1[nH]nc(-c2ccc(F)cc2)c1-c1ccncc1`, the inhibition is reported as 40%. `CN(C)c1ccc(CNC(=O)NCCCc2[nH]nc(-c3ccc(F)cc3)c2-c2ccncc2)cc1` gave an inhibition of 15%. Work on `O=S(=O)(NCc1[nH]nc(-c2ccc(F)cc2)c1-c1ccncc1)c1ccc(C(F)(F)F)cc1` yielded an inhibition of 60%. For `C[C@@H](NC(=O)Nc1ccc(F)cc1)c1[nH]nc(-c2ccc(F)cc2)c1-c1ccncc1`, the inhibition was 35%. `COc1ccc(CC(=O)N[C@H](C)c2[nH]nc(-c3ccc(F)cc3)c2-c2ccncc2)cc1` was tested, and the inhibition was 29%. `C[C@@H](NC(=O)c1cc(F)c(F)cc1F)c1[nH]nc(-c2ccc(F)cc2)c1-c1ccncc1` gave an inhibition of 52%. `C[C@H](NS(=O)(=O)c1ccc(Cl)s1)c1[nH]nc(-c2ccc(F)cc2)c1-c1ccncc1` was tested, and the inhibition was 95%. Work on `CC(C)c1cc(C(C)C)c(C(=O)N[C@@H](C)c2[nH]nc(-c3ccc(F)cc3)c2-c2ccncc2)c(C(C)C)c1` yielded an inhibition of 42%. In the case of `C[C@H](NC(=O)c1cccc(F)c1)c1[nH]nc(-c2ccc(F)cc2)c1-c1ccncc1`, the inhibition is reported as 21%. For `O=C(NCCc1[nH]nc(-c2ccc(F)cc2)c1-c1ccncc1)c1ccc(Cl)cc1`, the inhibition was 29%. `O=C(NCc1[nH]nc(-c2ccc(F)cc2)c1-c1ccncc1)c1ccc(Cl)c(Cl)c1` showed an inhibition of 31%. In the case of `C[C@@H](NS(=O)(=O)/C=C/c1ccccc1)c1[nH]nc(-c2ccc(F)cc2)c1-c1ccncc1`, the inhibition is reported as 36%. `CCc1ccc(S(=O)(=O)N[C@H](C)c2[nH]nc(-c3ccc(F)cc3)c2-c2ccncc2)cc1` was tested, and the inhibition was 92%. Molecule `CC(=O)NCCNC(=O)NCCCc1[nH]nc(-c2ccc(F)cc2)c1-c1ccncc1` has an inhibition of 9%. With `CCNC(=O)NCc1[nH]nc(-c2ccc(F)cc2)c1-c1ccncc1` the inhibition was 28%. With `C[C@@H](NC(=O)c1ccccc1F)c1[nH]nc(-c2ccc(F)cc2)c1-c1ccncc1` the inhibition was 75%. `C[C@@H](NC(=O)NCCc1[nH]nc(-c2ccc(F)cc2)c1-c1ccncc1)c1ccccc1` showed an inhibition of 25%. In the case of `C[C@@H](NS(=O)(=O)c1cn(C)cn1)c1[nH]nc(-c2ccc(F)cc2)c1-c1ccncc1`, the inhibition is reported as 80%. `Cc1ccc(S(=O)(=O)N[C@@H](Cc2ccccc2)C(=O)N[C@H](C)c2[nH]nc(-c3ccc(F)cc3)c2-c2ccncc2)cc1` was tested, and the inhibition was 10%. `O=C(NCc1[nH]nc(-c2ccc(F)cc2)c1-c1ccncc1)[C@H]1CCCN1C(=O)OCC1c2ccccc2-c2ccccc21` showed an inhibition of 14%.
